For data set [1], the system named is primary cortical cultures. Kind of data set: Parkin siRNA in kainate-treated primary cortical cultures, Western blot. It is filed as cell-based, mice. As to conditions: 25 nM siRNA. As for the experimental part: (§1) Cerebellar granule neurons from P6 mice were purified and transfected essentially as described (Scheiffele et al., Neuroligin expressed in nonneuronal cells triggers presynaptic development in contacting axons. Cell, 101:657-69, 2000). Dissociated cortical neurons from E16.5 mice were prepared and cultured as described (Scheiffele et al., Neuroligin expressed in nonneuronal cells triggers presynaptic development in contacting axons. Cell, 101:657-69, 2000). Primary midbrain cultures were prepared from E13.5 mouse embryos, as described (Hynes et al., Induction of midbrain dopaminergic neurons by Sonic hedgehog. Neuron, 15:35-44, 1995). Cells were treated for 24 h with or without kainate (250 or 500 μM as indicated; Sigma) or MPP^+ (1 or 10 μM as indicated; Sigma), stained for 20 min with 0.5 μg/ml Hoechst 33342 (Sigma), and visualized by fluorescence microscopy. For granule cell assays, at least 100 cells in two 20× fields were scored in duplicate for GFP and/or Hoechst signal. For immunohistochemistry, cell cultures were washed twice with PBS, and fixed for 20 min with 4% (w/v) paraformaldehyde. Cells were blocked for 1 h, at room temperature, with 3% (v/v) goat serum in PBS, and then incubated overnight, at 4° C., with specific antibodies, as indicated. Cells were washed, incubated for 1 h at room temperature with appropriately-labeled secondary antibodies, and visualized by fluorescence microscopy. For midbrain culture experiments, DAT-specific immunoreactivity (pixels), and cytoplasmic parkin and cyclin E immunoreactivity (mean pixel density), were quantified in triplicate, across nine fields of view, at 20× using Image software (Scion).
SiRNAs were synthesized by Dharmacon Research, Inc., and duplexes were formed as per the manufacturer's instructions (parkin siRNA sequence: 5′ […] […]dTdT 3′; DAT siRNA sequence: 5′ […]dTdT 3′; SERT siRNA sequence: 5′[…]dTdT 3′). […]
On the technique in general: In western blotting, separated proteins are transferred to a membrane and probed.

For data set [2], the system named is primary culture midbrain dopamine neurons. The data set is described as follows: Parkin siRNA in primary midbrain dopamine neuron cultures. Format: cell-based, mice. As for the experimental part: as §1
SiRNAs were synthesized by Dharmacon Research, Inc., and duplexes were formed as per the manufacturer's instructions (parkin siRNA sequence: 5′ […] […]dTdT 3′; DAT siRNA sequence: 5′ […]dTdT 3′; SERT siRNA sequence: 5′[…]dTdT 3′). Cortical cultures were transfected using Lipofectamine 2000 reagent (Life Technologies); primary midbrain cultures were transfected using Transmessenger (Qiagen), as described (Krichevsky and Kosik, RNAi functions in cultured mammalian neurons. Proc. Natl. Acad. Sci. USA, 99:11926-929, 2002).
Embryonic day 13.5 (E13.5) primary culture midbrain dopamine neurons, identified by immunohistochemical staining for the dopamine transporter (DAT) (Nirenberg et al., The dopamine transporter is localized to dendritic and axonal plasma membranes of nigrostriatal dopaminergic neurons. J. Neurosci., 16:436-47, 1996), were transfected with parkin siRNA (FIG. 7, panels F-J and P-T) or control siRNA (FIG. 7, panels A-E and K-O), and subsequently exposed to kainate, as above.

The test system of a further data set is DJ-1 deficient ES cells. Format: cell-based. As to the method: DJ-1 has been hypothesized to function in the cellular response to oxidative stress. To investigate the role of DJ-1 in the oxidative stress response in vivo, DJ-1-deficient homozygous mutant (‘knockout’) cells and DJ-1 heterozygote (‘control’) ES cell clones were analyzed for cell viability in the context of increasing concentrations of H2O2. Heterozygous cells were used as controls because the ‘knockout’ subclones were derived from these. Cell viability was initially determined by MTT assay in triplicate (Fezoui et al. 2000). […] The increase in AV-positive cells implicated an apoptotic mechanism of cell death (FIG. 14F).
(§2) In Vivo Assays. ES cells plated in 96-well format (2.3×10^4 cells/well) were treated for 15 hours with H2O2 in ES media deficient in β-mercaptoethanol (Abeliovich et al. 2000). Cell viability (as a percent of untreated control) was determined by MTT assay in triplicate (Fezoui et al. 2000). Annexin V/Propidium Iodide (Molecular probes) staining was performed per the manufacturer's instructions. For dihydrorhodamine-123 staining (DHR, Molecular probes) (Walrand et al. 2003), cells were preincubated for 30 min with DHR (5 μM), washed with PBS, then treated with H2O2 in ES media deficient in β-mercaptoethanol for 15 min at 37° C. The FACS analysis was performed using a FACSTAR sorter (Becton Dickinson). Dopamine uptake assay was performed essentially as described (Farrer et al. 1998). Reported values represent specific uptake from which non-specific uptake, determined in the presence of mazindol, was subtracted, and normalized for protein content (BCA kit, Pierce).

A further data set has as its target T1, citrate synthase (CS) (Sus scrofa, UniProt P00889).
T1 construct: purchased Sigma
T1 sequence (P00889 28-464): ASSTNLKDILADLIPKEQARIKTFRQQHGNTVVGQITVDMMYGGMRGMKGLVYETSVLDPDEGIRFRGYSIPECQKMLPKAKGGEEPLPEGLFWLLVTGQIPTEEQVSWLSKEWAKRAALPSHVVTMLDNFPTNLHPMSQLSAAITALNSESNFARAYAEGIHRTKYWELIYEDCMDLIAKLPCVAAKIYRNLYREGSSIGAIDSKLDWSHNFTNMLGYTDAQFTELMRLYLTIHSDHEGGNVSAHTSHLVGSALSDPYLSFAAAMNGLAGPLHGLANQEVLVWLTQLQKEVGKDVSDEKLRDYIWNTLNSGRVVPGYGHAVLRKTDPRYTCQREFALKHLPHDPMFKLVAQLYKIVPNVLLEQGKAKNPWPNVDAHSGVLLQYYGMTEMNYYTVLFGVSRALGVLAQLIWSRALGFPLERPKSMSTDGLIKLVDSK
The data set is described as follows: Suppression of heat-induced aggregation of citrate synthase (chaperone assay). It is filed as biochemical. The settings on record: 0.8 μM CS, 43° C. As to the method: To test the redox regulation of DJ-1, the inventors assayed chaperone activity in the CS aggregation assay in the presence or absence of the reducing agent DTT. […] (FIG. 22D). […] To further test whether redox regulation might govern DJ-1 chaperone activity, reactivation studies using reduced DJ-1 were performed. DTT-reduced DJ-1 was incubated with H2O2 (10 mM in aggregation buffer for 10 min at 4° C. followed by dialysis against aggregation buffer for 2 h), and subsequently chaperone activity was measured in the CS thermal aggregation assay. […] This was not an indirect effect of residual H2O2 on CS aggregation, as H2O2 treatment of CS increased aggregation (unpublished data).
CS aggregation was performed in 40 mM HEPES (pH 7.8), 20 mM potassium hydroxinde, 50 mM potassium chloride, and 10 mM ammonium sulfate, and monitored in a thermostat-controlled fluorescence spectrophotometer with excitation and emission wavelengths at 500 nm and slit widths at 2.5 nm. Insulin aggregation was performed as described (Giasson et al. 2000). CS, insulin, RNase A, and GST were obtained from Sigma; human Hsp27 was obtained from Stressgen.

A further data set relates to DJ-1-deficient ES cells. The data set is described as follows: Rescue of DJ-1-deficient ES cells from H2O2, MTT viability. Format: cell-based, murine. As to conditions: transient transfection, 10 μM H2O2 for 15 h. As for the experimental part:
(A) DJ-1 cysteine-to-alanine mutants C106A, C53A, and a triple mutant that harbors mutations at all three cysteines in DJ-1 (C106A/C53A/C46A), as well as L166P, were tested for in vitro chaperone activity by CS aggregation suppression assay. (B) Self-association of DJ-1 cysteine mutants. Murine neuroblastoma CAD cells were transiently cotransfected with Flag-tagged human DJ-1 vectors (either WT or mutant) along with WT YFP-tagged human DJ-1. Lysates were immunoprecipitated with anti-Flag antibodies and probed by Western blotting with an antibody specific for human DJ-1. […] Lysates represent 20% of the input for the immunoprecipitate; Flag-DJ-1 migrates at 22 kDa, and YFP-DJ-1 migrates at 50 kDa. (C) DJ-1-deficient ES cells were transiently transfected with vector alone, WT DJ-1, or DJ-1 cysteine mutants, and exposed to 10 μM H2O2 for 15 h followed by MTT assay. The viability of the cells in the absence of drug treatment was not altered by the expression of WT or mutant DJ-1). Data are shown as the mean±SEM and were analyzed by ANOVA with Fisher's post-hoc test. *p<0.05.
To confirm that altered sensitivity to oxidative stress is a consequence of the loss of DJ-1, ‘rescue’ experiments by overexpressing wild-type or mutant human DJ-1 in ‘knockout’ ES cells were performed. Plasmids encoding human wild-type DJ-1, PD-associated L166P mutant DJ-1, or vector alone, were transiently transfected into DJ-1 deficient clones, and these were subsequently assayed for sensitivity to H2O2 using the MTT viability assay.
as §2

Read-outs that look alike come from different tables or passages of the source. d = 2'-deoxy (DNA); r = 2'-OH (RNA)

With “5′ UUCCAAACCGG AUGAGUGGdTdT 3′ (UUCCAAACCGGAUGAGUGGTT; siRNA; sugars from the 5' end r19 d2, backbone not given here) [parkin siRNA, parkin-specific short interfering RNA synthesized by Dharmacon]”, in data set [1], the “cleaved-PARP (apoptosis marker)” value is recorded as “accumulation of cleaved poly (ADP-ribose) polymerase”, the “cyclin E accumulation” value is “increased accumulation of cyclin E” and the parkin protein expression entry is recorded as “significantly reduced parkin expression”. The “dopamine neuron sensitivity to MPP+” value in data set [2] (MPP+ 10 μM) is listed as “failed to alter dopamine neuron sensitivity”. Moreover, the “cyclin E or DAT immunoreactivity” value in data set [2] (absence of kainate) is “failed to alter cyclin E or DAT immunoreactivity”. Further, in data set [2] (cyclin E induction and apoptosis), the “sensitization of DAT-negative neurons to kainate relative to DAT-positive population” value is “significantly lesser extent”. Also, in data set [2] (kainate), the “apoptosis of dopamine neurons” value was “increased apoptosis” and the “cyclin E accumulation in dopamine neurons” value is reported as “increased accumulation of cyclin E”. In addition, the DAT immunoreactivity result in data set [2] (presence of kainate) is listed as “decreased DAT immunoreactivity”.
Consider `OO` [H2O2], for which the “sensitivity of DJ-1 deficient cells to toxin relative to heterozygous cells” value in the data set on DJ-1 deficient ES cells (15 h exposure, MTT) is recorded as “significantly greater toxicity”.
With `[Cl][Cu][Cl]` [copper], the “sensitivity of DJ-1 deficient cells to toxin relative to heterozygous cells” value in the data set with DJ-1 deficient ES cells (15 h exposure, MTT) is on record as “sensitized”.
On the same count and under the same terms, the value for `C[C@@H]1C[C@@H]([C@H](O)CC2CC(=O)NC(=O)C2)C(=O)[C@@H](C)C1` [cycloheximide] was “did not observe altered sensitivity”.
As to `CC(=O)N[C@@H](CSC(=O)[C@]1([C@@H](O)C(C)C)NC(=O)[C@H](C)[C@@H]1O)C(=O)O` [lactacystin], the “sensitivity of DJ-1 deficient cells to toxin relative to heterozygous cells” value in the data set with DJ-1 deficient ES cells is given as “sensitized”.
With `CN[C@@H]1C[C@H]2O[C@@](C)([C@@H]1OC)n1c3ccccc3c3c4c(c5c6ccccc6n2c5c31)C(=O)NC4` [staurosporine], the “sensitivity of DJ-1 deficient cells to toxin relative to heterozygous cells” value with DJ-1 deficient ES cells (15 h exposure, MTT) is on record as “did not observe altered sensitivity”.
For the molecule tunicamycin, the “sensitivity of DJ-1 deficient cells to toxin relative to heterozygous cells” value in the data set on DJ-1 deficient ES cells (15 h exposure, MTT) is recorded as “did not observe altered sensitivity”.

B1: C106A: DJ-1 cysteine-to-alanine mutant at cysteine 106 (protein, UniProt Q99497 1-189, looked up, variant C106A)
chain: MASKRALVILAKGAEEMETVIPVDVMRRAGIKVTVAGLAGKDPVQCSRDVVICPDASLEDAKKEGPYDVVVLPGGNLGAQNLSESAAVKEILKEQENRKGLIAAIAAGPTALLAHEIGFGSKVTTHPLAKDKMMNGGHYTYSENRVEKDGLILTSRGPGTSFEFALAIVEALNGKEVAAQVKAPLVLKD
As to B1, the “suppression of heat-induced aggregation of CS (chaperone activity)” value with citrate synthase (CS) is recorded as “does not alter the basal activity”. Besides, the “viability of DJ-1 knockout cells in the presence of H2O2” value with DJ-1-deficient ES cells is “robustly rescued”.

B2: C106A/C53A/C46A: triple mutant that harbors mutations at all three cysteines in DJ-1 (protein, UniProt Q99497 1-189, looked up, variant C106A C53A C46A)
chain: MASKRALVILAKGAEEMETVIPVDVMRRAGIKVTVAGLAGKDPVQASRDVVIAPDASLEDAKKEGPYDVVVLPGGNLGAQNLSESAAVKEILKEQENRKGLIAAIAAGPTALLAHEIGFGSKVTTHPLAKDKMMNGGHYTYSENRVEKDGLILTSRGPGTSFEFALAIVEALNGKEVAAQVKAPLVLKD
B2: the “suppression of heat-induced aggregation of CS (chaperone activity)” value with citrate synthase (CS) was “loss of chaperone function”. In the data set on DJ-1-deficient ES cells, the “viability of DJ-1 knockout cells in the presence of H2O2” value is given as “failed to protect”.

Values taken from patent US20060171935A1, “Protecting cell therapy for neurological disorders including Parkinson's disease” (priority 2005, published 2006).
